Data set [1] can be described thus: Redox potential measurement against Ag/AgCl reference electrode. The data set is classed as physicochemical. The settings on record: for Redox potential: urea-H2O2 with H2O2 content of 15%.
Data set [2] in a line: pH of the agent solutions. The format is physicochemical.
Data set [3] can be described thus: Terbinafine diffusion study (ChubTur diffusion cell). The data set is classed as in vitro ADME, human. As for the experimental part: Human nail samples (full thickness) of ca. 3 mm diameter were positioned between the two halves of the specifically designed ChubTur™ diffusion cell and clamped together. The receptor compartment was filled with a previously sonicated suitable buffer system to ensure sink conditions and the cells were fixed on a perspex holder mounted on a magnetic stirrer in a water bath maintained at 32° C. The receptor chamber contents were continuously agitated by small PTFE-coated magnetic followers driven by a submersible magnetic stirrer. A known amount of formulation/drug solution was applied to the surface of the nail (infinite dose) and at regular time intervals samples of buffer were taken from the receptor compartment, replaced with fresh receptor medium and assayed for drug content using HPLC.

Setting [4] is: DTT concentration 0.005 % w/w, n = 2.
Where [5] appears, read: DTT concentration 0.01 % w/w, n = 2.
The mark [6] stands for this setting: DTT concentration 0.05 % w/w, n = 2.
Setting [7] is: DTT concentration 0.1 % w/w, n = 2.
Setting [8] is: DTT concentration 1 % w/w, n = 2.
The mark [9] stands for this setting: DTT concentration 5 % w/w, n = 2.
Where [10] appears, read: DTT concentration 7.5 % w/w, n = 2.
Setting [11] is: DTT concentration 10 % w/w, n = 2.
Setting [12] is: H2O2 concentration 0.005 % w/w, n = 3.
Where [13] appears, read: H2O2 concentration 0.01 % w/w, n = 3.
Setting [14] is: H2O2 concentration 0.05 % w/w, n = 3.
Where [15] appears, read: H2O2 concentration 0.1 % w/w, n = 3.
Setting [16] is: H2O2 concentration 1 % w/w, n = 3.
[17] abbreviates: H2O2 concentration 10 % w/w, n = 3.
The mark [18] stands for this setting: H2O2 concentration 20 % w/w, n = 3.
Setting [19] is: H2O2 concentration 30 % w/w, n = 3.
[20] abbreviates: H2O2 concentration 32.5 % w/w, n = 3.
Setting [21] is: H2O2 concentration 35 % w/w, n = 3.
Setting [22] is: Urea-H2O2, H2O2 content 0.0025 % w/w, n = 3.
Where [23] appears, read: Urea-H2O2, H2O2 content 0.005 % w/w, n = 3.
Setting [24] is: Urea-H2O2, H2O2 content 0.025 % w/w, n = 3.
[25] abbreviates: Urea-H2O2, H2O2 content 0.05 % w/w, n = 3.
[26] abbreviates: Urea-H2O2, H2O2 content 0.5 % w/w, n = 3.
The mark [27] stands for this setting: Urea-H2O2, H2O2 content 5 % w/w, n = 3.
[28] abbreviates: Urea-H2O2, H2O2 content 10 % w/w, n = 3.
[29] abbreviates: Urea-H2O2, H2O2 content 15 % w/w, n = 3.
Setting [30] is: Urea-H2O2, H2O2 content 16.25 % w/w, n = 3.
Where [31] appears, read: Urea-H2O2, H2O2 content 17.5 % w/w, n = 3.

The structures appear in SMILES notation.

Data on 15 compounds can be found in patent US20080207537A1, “Topical Ungual Formulations” (priority 2005, published 2008).

`O[C@@H](CS)[C@@H](O)CS` (racemic) [DTT, 1,4-dithio-DL-threitol]: the “Mean Redox Potential” value in data set [1] (0.5M concentration, n = 3) was −241.0 mV; in data set [1] (setting [4]), −122.7; in data set [1] (setting [5]), −134.9; in data set [1] (setting [6]), −169.19; in data set [1] (setting [7]), −189.65; in data set [1] (setting [8]) it was −185.75. The Mean Redox Potential in data set [1] (setting [9]) is listed as −201.25; in data set [1] (setting [10]) it was −209.65; in data set [1] (setting [11]), −193.1. For the same compound, the “Mean pH” value in data set [2] (0.5M concentration, n = 3) was 2.64; in data set [2] (setting [4]), 8.07; in data set [2] (setting [5]) it was 8.00; in data set [2] (setting [6]), 7.80; in data set [2] (setting [7]), 7.59; in data set [2] (setting [8]), 7.01. Further, the “Mean pH” value in data set [2] (setting [9]) came out at 6.20; in data set [2] (setting [10]), 6.24; in data set [2] (setting [11]), 5.69.
`N.O=C(O)CS` [Ammonium thioglycolate]: the “Mean Redox Potential” value in data set [1] (0.5M concentration, n = 3) is listed as −235.9 mV. For the same compound, the “Mean pH” value in data set [2] (0.5M concentration, n = 3) was found to be 6.29.
As for `O=C([O-])CS.O=C([O-])CS.[Ca+2]` [Calcium thioglycolate], the “Mean Redox Potential” value in data set [1] (0.5M concentration, n = 3) is on record as −531.3 mV. In addition, the “Mean pH” value in data set [2] (0.5M concentration, n = 3) was 11.74. In data set [2] (5% concentration, solution applied to nail (FIG. 7)), the “pH of solution prior to application” value is 11.43.
Consider `CC12CCC(CC1)C(C)(C)O2` [Cineol], for which the “Mean Redox Potential” value in data set [1] (0.5M concentration, n = 3) was 67.2 mV. Also, the “Mean pH” value in data set [2] (0.5M concentration, n = 3) came to 5.91.
As to `Cl.N[C@@H](CS)C(=O)O.O` [Cysteine, L-Cysteine hydrochloride hydrate], the “Mean Redox Potential” value in data set [1] (0.5M concentration, n = 3) is on record as −79.3 mV.
Regarding `O=C(O)CO` [Glycolic acid], the “Mean Redox Potential” value in data set [1] (0.5M concentration, n = 3) amounted to 247.7 mV. For the same compound, the “Mean pH” value in data set [2] (0.5M concentration, n = 3) is 2.03.
Turning to `OO` [Hydrogen peroxide], the “Mean Redox Potential” value in data set [1] (0.5M concentration, n = 3) is 277.3 mV; in data set [1] (setting [12]) it was 142.3; in data set [1] (setting [13]) it was 153.0; in data set [1] (setting [14]), 200.4; in data set [1] (setting [15]), 193.5; in data set [1] (setting [16]), 231.6. In addition, the Mean Redox Potential is listed as 357.2 in data set [1] (setting [17]); 402.8 in data set [1] (setting [18]); 430.4 in data set [1] (setting [19]); 437.9 in data set [1] (setting [20]); 444.5 in data set [1] (setting [21]). The “Mean pH” value turned out to be 6.21 in data set [2] (0.5M concentration, n = 3); 7.56 in data set [2] (setting [12]); 7.46 in data set [2] (setting [13]); 6.78 in data set [2] (setting [14]); 6.71 in data set [2] (setting [15]); 6.17 in data set [2] (setting [16]). Further, the “Mean pH” value is 3.79 in data set [2] (setting [17]); 3.16 in data set [2] (setting [18]); 2.64 in data set [2] (setting [19]); 2.54 in data set [2] (setting [20]); 2.55 in data set [2] (setting [21]).
In the case of `O=C(O)C(=O)O` [Oxalic acid], the “Mean Redox Potential” value in data set [1] (0.5M concentration, n = 3) was 254.8 mV. In addition, the “Mean pH” value in data set [2] (0.5M concentration, n = 3) was determined as 1.33.
On the same counts, the results for `O=S(=O)([O-])OOS(=O)(=O)[O-].[K+].[K+]` [Potassium persulphate] are 402.5 mV and 2.83.
As to `Oc1cccc(O)c1` [Resorcinol], the “Mean Redox Potential” value in data set [1] (0.5M concentration, n = 3) is listed as 8.6 mV. Moreover, in data set [2] (0.5M concentration, n = 3), the “Mean pH” value is given as 5.67.
The like results for `O=C([O-])CS.[Na+]` [Sodium thioglycolate] were, in that order, −281.7 mV and 6.90.
On the same counts, the results for `O=c1cc[nH]c(=S)[nH]1` [Thiouracil] are 53.4 mV and 6.28.
`NC(N)=O.OO` [Urea hydrogen Peroxide, Urea hydrogen peroxide addition compound]: the “Mean Redox Potential” value is given as 349.7 mV in data set [1] (0.5M concentration, n = 3); 189.4 mV in data set [1] (setting [22]); 191.3 mV in data set [1] (setting [23]); 199.5 mV in data set [1] (setting [24]); 208.1 mV in data set [1] (setting [25]); 293.6 mV in data set [1] (setting [26]). The “Mean Redox Potential” value in data set [1] (setting [27]) came out at 372.3 mV; in data set [1] (setting [28]), 377.9 mV; in data set [1] (setting [29]), 380.3 mV; in data set [1] (setting [30]), 382.9 mV; in data set [1] (setting [31]), 382.3 mV. Also, the Redox potential in data set [1] (approximate pH 2 (adjusted using HCl and NaOH), n = 3) is on record as 459.8 mV; in data set [1] (approximate pH 4 (adjusted using HCl and NaOH), n = 3) it was 334.1 mV; in data set [1] (approximate pH 6 (adjusted using HCl and NaOH), n = 3) it was 284.0 mV; in data set [1] (approximate pH 8 (adjusted using HCl and NaOH), n = 3) it was 194.2 mV; in data set [1] (approximate pH 10 (adjusted using HCl and NaOH), n = 3), 16.1 mV. The “Mean pH” value in data set [2] (0.5M concentration, n = 3) turned out to be 2.72; in data set [2] (setting [22]), 6.07; in data set [2] (setting [23]), 6.17; in data set [2] (setting [24]), 6.56; in data set [2] (setting [25]), 6.81; in data set [2] (setting [26]), 5.31. Moreover, the “Mean pH” value in data set [2] (setting [27]) worked out at 5.10; in data set [2] (setting [28]), 4.23; in data set [2] (setting [29]), 4.04; in data set [2] (setting [30]), 3.87; in data set [2] (setting [31]), 3.33.
Take `O=C(O)/C=C/c1ccc(O)cc1` [p-coumaric acid]: the “Mean Redox Potential” value in data set [1] (0.5M concentration, n = 3) is recorded as 114.1 mV. Also, the “Mean pH” value in data set [2] (0.5M concentration, n = 3) was 3.54.
On to `CN(C/C=C/C#CC(C)(C)C)Cc1cccc2ccccc12` [terbinafine], for which the “amount of drug penetrated the nail” value in data set [3] (nails soaked in 50:50 ethanol/water (control) for 20 h before drug, after 214 h) was found to be 44±13 μg per cm^2. Besides, the “amount of drug penetrating the nail” value is recorded as “less than 10 μg per cm^2” in data set [3] (pre-treatment with TA then urea-H2O2 for 30 min); “less than 10 μg per cm^2” in data set [3] (pre-treatment with TA then urea-H2O2 for 1 h); 861±135 μg per cm^2 in data set [3] (pre-treatment with thioglycolic acid alone); 47±33 μg per cm^2 in data set [3] (pre-treatment with urea-hydrogen peroxide alone); 2308±1332 μg per cm^2 in data set [3] (thioglycolic acid and urea-H2O2 applied sequentially prior to terbinafine, after 219 h). In addition, in data set [3] (pre-treatment with TA then urea-H2O2 for up to 20 h each, after 315 h), the “amount of terbinafine penetrating the human nail” value amounted to 3329±1842 μg per cm^2. For the same compound, the “effect of pre-treatment on the amount of drug penetrating the nail” value in data set [3] (pre-treatment with urea-hydrogen peroxide versus control, p>0.05, ANOVA) is reported as “no significant effect”.
